The source of these data is US11117947B2, “Double-acylated GLP-1 derivatives” (Novo Nordisk A/S, priority 2011, dated 2021).

Numbered stars: 1 amine (or outer) side, 2 acyl side, 3 side chain; on linkers, the order of the positions; unused ones are H or OH. Square brackets hold non-standard residues; d marks the D form. Side chains are listed from the residue outwards. Peptide text beside a SMILES is read from it. * marks the point of attachment. Decanoyl(10-(4-HOOC-PhO)) = O=C(O)c1ccc(OCCCCCCCCCC(=O)*)cc1; γGlu = O=C(O)[C@H](CCC(=O)[*:2])N[*:1]; C14 diacid = O=C(O)CCCCCCCCCCCCC(=O)*; AEEA = NCCOCCOCC(=O)O; Aib = CC(C)(N)C(=O)O

The nature of data set [1]: Estimate of oral bioavailability: gut injection in rat (caprate), exposure in plasma. Format: in vivo. The conditions noted are these: injection in jejunum, 1000 uM in 55 mg/ml sodium caprate, plasma concentration (pM) at 30 min divided by dosing solution concentration (μM), mean n=4. A digest of the protocol: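 Male Sprague Dawley rats (~240 g, n=4) received 100 μl of 1000 uM derivative in 55 mg/ml sodium caprate by catheter into proximal or mid jejunum. Tail-vein EDTA plasma was sampled up to 240 min. Peptide was quantified by two-antibody bead chemiluminescence immunoassay, giving mean concentration-time profiles (pmol/l).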

A short description of data set [2]: Half-life in minipigs after i.v. administration. It counts as in vivo. Particulars: minipig, plasma, iv, male Göttingen minipigs, read-out: terminal half-life (converted). The source says:
By terminal half-life is generally meant the period of time it takes to halve a certain plasma concentration, measured after the initial distribution phase.

Data set [3] can be described thus: Pharmacokinetics in rat: half-life after i.v. administration. Format: in vivo. The conditions noted are these: plasma, iv, 6 nmol/kg, male Sprague Dawley rats, approximately 4 rats per group, read-out: t½/h (half-life in rat) (converted). The method, then:
In vivo pharmacokinetic studies in rats were performed with the GLP-1 derivatives of Examples 2, 10, 17-18, and 31, as described in the following. Semaglutide was included for comparison.
Male Sprague Dawley rats of same age with a body weight of approximately 400 g were obtained from Taconic (Denmark) and assigned to the treatments by simple randomisation on body weight, approximately 4 rats per group, so that all animals in each group were of similar body weight.
The GLP-1 derivatives (approximately 6 nmol/ml) were dissolved in 50 mM sodium phosphate, 145 mM sodium chloride, 0.05% tween 80, pH 7.4. Intravenous injections (1.0 ml/kg) of the compounds were given through a catheter implanted in the right jugular vein. Blood was sampled from vena sublingualis for 5 days post dosing. Blood samples (200 μl) were collected in EDTA buffer (8 mM) and then centrifuged at 4° C. and 10000 G for 5 minutes. Plasma samples were kept at −20° C. until analyzed for plasma concentration of the respective GLP-1 compound.
The plasma concentrations of the GLP-1 compounds were determined using a Luminescence Oxygen Channeling Immunoasssay (LOCI), generally as described for the determination of insulin by Poulsen and Jensen in Journal of Biomolecular Screening 2007, vol. 12, p. 240-247. The donor beads were coated with streptavidin, while acceptor beads were conjugated with a monoclonal antibody recognising a mid-/C-terminal epitope of the peptide. Another monoclonal antibody, specific for the N-terminus, was biotinylated. The three reactants were combined with the analyte and formed a two-sited immuno-complex. Illumination of the complex released singlet oxygen atoms from the donor beads, which were channeled into the acceptor beads and triggered chemiluminescence which was measured in an Envision plate reader. The amount of light was proportional to the concentration of the compound.
Plasma concentration-time profiles were analyzed using Phoenix WinNonLin ver. 6.2, Pharsight Inc., Mountain View, Calif., USA), and the half-life (T1/2) calculated using individual plasma concentration-time profiles from each animal.

The target of the next data set is T1, human GLP-1 receptor (Homo sapiens, UniProt P43220).
T1 construct: expressed in transfected cells; membranes
T1 sequence (P43220 24-463): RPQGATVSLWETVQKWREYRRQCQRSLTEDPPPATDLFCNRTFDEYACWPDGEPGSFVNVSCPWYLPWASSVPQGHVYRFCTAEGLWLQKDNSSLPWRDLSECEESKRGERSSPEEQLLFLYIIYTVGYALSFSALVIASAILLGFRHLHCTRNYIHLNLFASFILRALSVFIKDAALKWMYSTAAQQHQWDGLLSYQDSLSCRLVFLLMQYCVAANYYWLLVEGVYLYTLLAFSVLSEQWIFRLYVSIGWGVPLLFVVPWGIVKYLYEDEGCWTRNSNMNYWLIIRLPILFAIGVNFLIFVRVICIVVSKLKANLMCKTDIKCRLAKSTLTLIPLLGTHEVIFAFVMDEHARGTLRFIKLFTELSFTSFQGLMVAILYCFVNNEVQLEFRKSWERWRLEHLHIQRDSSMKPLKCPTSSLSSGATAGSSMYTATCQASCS
Description: GLP-1 receptor binding: displacement of 125I-GLP-1 (SPA) at low and high albumin. Particulars: 2.0% HSA vs 0.001% HSA. A digest of the protocol: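 Membranes from hamster cells stably transfected with the receptor, with WGA SPA beads and 0.06 nM [^125I]-GLP-1(7-36)NH2, incubated 120 min at 30 °C with shaking.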
A general note: In a radioligand displacement assay an active substance lowers the binding of a labelled ligand.

`CC[C@H](C)[C@H](NC(=O)[C@H](Cc1ccccc1)NC(=O)[C@H](CCCCNC(=O)COCCOCCNC(=O)COCCOCCNC(=O)CC[C@H](NC(=O)CCCCCCCCCOc1ccc(C(=O)O)cc1)C(=O)O)NC(=O)[C@H](CCCNC(=N)N)NC(=O)[C@H](C)NC(=O)[C@H](C)NC(=O)[C@H](CCC(N)=O)NC(=O)[C@H](CCC(=O)O)NC(=O)[C@H](CCC(=O)O)NC(=O)[C@H](CC(C)C)NC(=O)[C@H](Cc1ccc(O)cc1)NC(=O)[C@H](CO)NC(=O)[C@H](CO)NC(=O)[C@@H](NC(=O)[C@H](CC(=O)O)NC(=O)[C@H](CO)NC(=O)[C@@H](NC(=O)[C@H](Cc1ccccc1)NC(=O)[C@@H](NC(=O)CNC(=O)[C@H](CCC(=O)O)NC(=O)[C@H](C)NC(=O)[C@@H](N)Cc1c[nH]cn1)[C@@H](C)O)[C@@H](C)O)C(C)C)C(=O)N[C@@H](CCC(=O)O)C(=O)N[C@@H](Cc1c[nH]c2ccccc12)C(=O)N[C@@H](CC(C)C)C(=O)N[C@H](C(=O)N[C@@H](CCCNC(=N)N)C(=O)NCC(=O)N[C@@H](CCCCNC(=O)COCCOCCNC(=O)COCCOCCNC(=O)CC[C@H](NC(=O)CCCCCCCCCOc1ccc(C(=O)O)cc1)C(=O)O)C(=O)NCC(=O)N[C@@H](CCC(=O)O)C(=O)NCC(=O)O)C(C)C` [Example 2, N^ε27-[2-[2-[2-[[2-[2-[2-[[(4S)-4-carboxy-4-[10-(4-carboxyphenoxy)decanoylamino]butanoyl]amino]ethoxy]ethoxy]acetyl]amino]ethoxy]ethoxy]acetyl], N^ε36-[2-[2-[2-[[2-[2-[2-[[(4S)-4-carboxy-4-[10-(4-carboxyphenoxy)decanoylamino]butanoyl]amino]ethoxy]ethoxy]acetyl]amino]ethoxy]ethoxy]acetyl]-[Glu^22,Arg^26,Lys^27,Glu^30,Arg^34,Lys^36]-GLP-1-(7-37)-peptidyl-Glu-Gly] (H-HAEGTFTSDVSSYLEEQAARK([AEEA-AEEA-γGlu-Decanoyl(10-(4-HOOC-PhO))])FIEWLVRGK([AEEA-AEEA-γGlu-Decanoyl(10-(4-HOOC-PhO))])GEG-OH; N-terminus and C-terminus assumed): the “Dose-corrected exposure at 30 min” value in data set [1] was 98. For the same molecule, the half-life is 87 h in data set [2] and 26 h in data set [3].

As for `CC[C@H](C)[C@H](NC(=O)[C@H](Cc1ccccc1)NC(=O)[C@H](CCCCNC(=O)COCCOCCNC(=O)COCCOCCNC(=O)CC[C@H](NC(=O)CCCCCCCCCOc1ccc(C(=O)O)cc1)C(=O)O)NC(=O)[C@H](Cc1c[nH]cn1)NC(=O)[C@H](C)NC(=O)[C@H](C)NC(=O)[C@H](CCC(N)=O)NC(=O)CNC(=O)[C@H](CCC(=O)O)NC(=O)[C@H](CC(C)C)NC(=O)[C@H](Cc1ccc(O)cc1)NC(=O)[C@H](CO)NC(=O)[C@H](CO)NC(=O)[C@@H](NC(=O)[C@H](CC(=O)O)NC(=O)[C@H](CO)NC(=O)[C@@H](NC(=O)[C@H](Cc1ccccc1)NC(=O)[C@@H](NC(=O)CNC(=O)[C@H](CCC(=O)O)NC(=O)[C@H](C)NC(=O)[C@@H](N)Cc1c[nH]cn1)[C@@H](C)O)[C@@H](C)O)C(C)C)C(=O)N[C@@H](CCC(=O)O)C(=O)N[C@@H](Cc1c[nH]c2ccccc12)C(=O)N[C@@H](CC(C)C)C(=O)N[C@H](C(=O)N[C@@H](CCCNC(=N)N)C(=O)NCC(=O)N[C@@H](CCCCNC(=O)COCCOCCNC(=O)COCCOCCNC(=O)CC[C@H](NC(=O)CCCCCCCCCOc1ccc(C(=O)O)cc1)C(=O)O)C(=O)NCC(=O)N[C@@H](CCC(=O)O)C(=O)O)C(C)C` [Example 10, N^ε27-[2-[2-[2-[[2-[2-[2-[[(4S)-4-carboxy-4-[10-(4-carboxyphenoxy)decanoylamino]butanoyl]amino]ethoxy]ethoxy]acetyl]amino]ethoxy]ethoxy]acetyl], N^ε36-[2-[2-[2-[[2-[2-[2-[[(4S)-4-carboxy-4-[10-(4-carboxyphenoxy)decanoylamino]butanoyl]amino]ethoxy]ethoxy]acetyl]amino]ethoxy]ethoxy]acetyl]-[His^26,Lys^27,Glu^30,Arg^34,Lys^36]-GLP-1-(7-37)-peptidyl-Glu] (H-HAEGTFTSDVSSYLEGQAAHK([AEEA-AEEA-γGlu-Decanoyl(10-(4-HOOC-PhO))])FIEWLVRGK([AEEA-AEEA-γGlu-Decanoyl(10-(4-HOOC-PhO))])GE-OH; N-terminus and C-terminus assumed), the “Dose-corrected exposure at 30 min” value in data set [1] is listed as 187. Also, the half-life in data set [3] was 23 h.

`CC[C@H](C)[C@H](NC(=O)[C@H](Cc1ccccc1)NC(=O)[C@H](CCCCNC(=O)COCCOCCNC(=O)COCCOCCNC(=O)CC[C@H](NC(=O)CCCCCCCCCCCCC(=O)O)C(=O)O)NC(=O)[C@H](CCCNC(=N)N)NC(=O)[C@@H](NC(=O)[C@H](C)NC(=O)[C@H](CCC(=O)O)NC(=O)[C@H](CCC(=O)O)NC(=O)[C@H](CCC(=O)O)NC(=O)[C@H](CC(C)C)NC(=O)[C@H](Cc1ccc(O)cc1)NC(=O)[C@H](CO)NC(=O)[C@H](CO)NC(=O)[C@@H](NC(=O)[C@H](CC(=O)O)NC(=O)[C@H](CO)NC(=O)[C@@H](NC(=O)[C@H](Cc1ccccc1)NC(=O)[C@@H](NC(=O)CNC(=O)[C@H](CCC(=O)O)NC(=O)[C@H](C)NC(=O)[C@@H](N)Cc1c[nH]cn1)[C@@H](C)O)[C@@H](C)O)C(C)C)C(C)C)C(=O)N[C@@H](C)C(=O)N[C@@H](Cc1c[nH]cn1)C(=O)N[C@@H](CC(C)C)C(=O)N[C@H](C(=O)N[C@@H](CCC(N)=O)C(=O)NCC(=O)N[C@@H](CCCNC(=N)N)C(=O)N[C@@H](CCCCNC(=O)COCCOCCNC(=O)COCCOCCNC(=O)CC[C@H](NC(=O)CCCCCCCCCCCCC(=O)O)C(=O)O)C(=O)O)C(C)C` [Example 17, N^ε27-[2-[2-[2-[[2-[2-[2-[[(4S)-4-carboxy-4-(13-carboxytridecanoylamino)butanoyl]amino]ethoxy]ethoxy]acetyl]amino]ethoxy]ethoxy]acetyl], N^ε37-[2-[2-[2-[[2-[2-[2-[[(4S)-4-carboxy-4-(13-carboxytridecanoylamino)butanoyl]amino]ethoxy]ethoxy]acetyl]amino]ethoxy]ethoxy]acetyl]-[Glu^22,Glu^23,Val^25,Arg^26,Lys^27,His^31,Gln^34,Lys^37]-GLP-1-(7-37)-peptide] (H-HAEGTFTSDVSSYLEEEAVRK([AEEA-AEEA-γGlu-C14 diacid])FIAHLVQGRK([AEEA-AEEA-γGlu-C14 diacid])-OH; N-terminus and C-terminus assumed): the “Dose-corrected exposure at 30 min” value in data set [1] is 168. Besides, the half-life in data set [3] was 10 h.

On to `CC[C@H](C)[C@H](NC(=O)[C@H](Cc1ccccc1)NC(=O)[C@H](CCCCNC(=O)COCCOCCNC(=O)COCCOCCNC(=O)CC[C@H](NC(=O)CCCCCCCCCOc1ccc(C(=O)O)cc1)C(=O)O)NC(=O)[C@H](CCCNC(=N)N)NC(=O)[C@H](C)NC(=O)[C@H](C)NC(=O)[C@H](CCC(N)=O)NC(=O)[C@H](CCC(=O)O)NC(=O)[C@H](CCC(=O)O)NC(=O)[C@H](CC(C)C)NC(=O)[C@H](Cc1ccc(O)cc1)NC(=O)[C@H](CO)NC(=O)[C@H](CO)NC(=O)[C@@H](NC(=O)[C@H](CC(=O)O)NC(=O)[C@H](CO)NC(=O)[C@@H](NC(=O)[C@H](Cc1ccccc1)NC(=O)[C@@H](NC(=O)CNC(=O)[C@H](CCC(=O)O)NC(=O)C(C)(C)NC(=O)[C@@H](N)Cc1c[nH]cn1)[C@@H](C)O)[C@@H](C)O)C(C)C)C(=O)N[C@@H](CCC(=O)O)C(=O)N[C@@H](Cc1c[nH]c2ccccc12)C(=O)N[C@@H](CC(C)C)C(=O)N[C@H](C(=O)N[C@@H](CCCNC(=N)N)C(=O)NCC(=O)N[C@@H](CCCCNC(=O)COCCOCCNC(=O)COCCOCCNC(=O)CC[C@H](NC(=O)CCCCCCCCCOc1ccc(C(=O)O)cc1)C(=O)O)C(=O)NCC(=O)N[C@@H](CCC(=O)O)C(=O)NCC(=O)O)C(C)C` [Example 31, N^ε27-[2-[2-[2-[[2-[2-[2-[[(4S)-4-carboxy-4-[10-(4-carboxyphenoxy)decanoylamino]butanoyl]amino]ethoxy]ethoxy]acetyl]amino]ethoxy]ethoxy]acetyl], N^ε36-[2-[2-[2-[[2-[2-[2-[[(4S)-4-carboxy-4-[10-(4-carboxyphenoxy)decanoylamino]butanoyl]amino]ethoxy]ethoxy]acetyl]amino]ethoxy]ethoxy]acetyl]-[Aib^8,Glu^22,Arg^26,Lys^27,Glu^30,Arg^34,Lys^36]-GLP-1-(7-37)-peptidyl-Glu-Gly] (H-H[Aib]EGTFTSDVSSYLEEQAARK([AEEA-AEEA-γGlu-Decanoyl(10-(4-HOOC-PhO))])FIEWLVRGK([AEEA-AEEA-γGlu-Decanoyl(10-(4-HOOC-PhO))])GEG-OH; N-terminus and C-terminus assumed), for which the “Ratio [(IC50/nM) high HSA]/[(IC50/nM) low HSA]” value at human GLP-1 receptor is recorded as 629. Further, the half-life in data set [3] was 19 h.
